Like-named read-outs stand apart in the source and are kept apart here.
Legend:
[1] = system: human PSA gene promoter; experiment: PSA promoter luciferase reporter (pGL3-PSA-luc) in LNCaP cells; conditions: 24 hr
[2] = target: T1, wildtype AR (Homo sapiens, UniProt P10275); experiment: PSA promoter luciferase reporter in PC-3 cells co-transfected with AR; conditions: PC-3 cells transfected with wildtype AR, 20 μM, 1 nM DHT, 24 hr
T1 sequence (P10275 1-920): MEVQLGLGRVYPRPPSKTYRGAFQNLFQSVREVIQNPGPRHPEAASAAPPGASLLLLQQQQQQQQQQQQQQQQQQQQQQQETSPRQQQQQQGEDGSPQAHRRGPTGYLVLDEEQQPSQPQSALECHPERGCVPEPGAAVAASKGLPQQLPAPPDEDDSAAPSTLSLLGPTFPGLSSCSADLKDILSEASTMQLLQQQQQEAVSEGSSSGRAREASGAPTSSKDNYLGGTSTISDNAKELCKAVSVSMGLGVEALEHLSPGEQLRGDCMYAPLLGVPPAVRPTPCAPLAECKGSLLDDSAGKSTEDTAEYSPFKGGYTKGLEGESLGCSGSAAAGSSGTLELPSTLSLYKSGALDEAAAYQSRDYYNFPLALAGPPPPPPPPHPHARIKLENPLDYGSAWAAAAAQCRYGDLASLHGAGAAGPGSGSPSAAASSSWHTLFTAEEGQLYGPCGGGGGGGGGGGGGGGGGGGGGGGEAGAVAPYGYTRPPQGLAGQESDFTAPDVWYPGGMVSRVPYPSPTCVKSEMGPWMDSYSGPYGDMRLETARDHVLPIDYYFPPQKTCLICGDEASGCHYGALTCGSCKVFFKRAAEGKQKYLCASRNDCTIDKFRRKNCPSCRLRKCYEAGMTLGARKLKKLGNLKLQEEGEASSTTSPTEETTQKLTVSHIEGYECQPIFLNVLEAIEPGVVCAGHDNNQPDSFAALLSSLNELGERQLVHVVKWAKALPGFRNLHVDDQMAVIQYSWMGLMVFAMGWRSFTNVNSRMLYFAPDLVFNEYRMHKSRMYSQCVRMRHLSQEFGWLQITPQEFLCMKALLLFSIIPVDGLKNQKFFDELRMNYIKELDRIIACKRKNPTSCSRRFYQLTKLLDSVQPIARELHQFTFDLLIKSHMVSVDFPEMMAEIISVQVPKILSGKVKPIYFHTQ

[3] = system: LNCaP cells; experiment: PSA secretion, ELISA of culture supernatant; format: cell-based
Method: PSA in the culture supernatant is determined by using an enzyme-linked immunosorbent assay (ELISA) kit. PSA levels are normalized by cell density.

[4] = system: AR; experiment: AR nuclear localization, immunostaining; format: cell-based; conditions: PC-3AR and LNCaP cells, SMEM, 20 μM, with or without 1 nM DHT, 2 h
From the text: AR nuclear translocation is a necessary step for AR action. […] AR in the cells were stained with an antibody to AR and detected with Texas Red-labeled secondary antibody. […] AR is translocated to the nuclei upon treatment with DHT. […] Thus, DL3 binds to AR.

[5] = system: LNCaP cells (mutant AR, H877A); experiment: LNCaP cell growth, MTT staining; format: cell-based; conditions: for inhibition at 10 µM: Homo sapiens, LNCaP, 96 h
From the text: (§1) Viable cells are stained with MTT (3-(4,5-dimethylthiazol-2-yl)-2,5-diphenyltetrazolium bromide). *, **, and *** designate p<0.05, <0.01, and 0.001, respectively, compared with controls.

[6] = system: LNCaP-Nilut-R cells; experiment: Growth of Nilut-refractory LNCaP cells, MTT; format: cell-based; conditions: 10 μM, 4 days, MTT (FIG. 2F)
From the text: as §1

[7] = system: AR-AF2 (NTD deleted); experiment: PSA promoter luciferase reporter in PC-3 cells co-transfected with AR-AF2; conditions: 20 μM, 24 hr
[8] = system: LNCaP cells; experiment: Cell cycle distribution and apoptosis, flow cytometry (propidium staining) and western blotting; format: cell-based
Method: To further appreciate the effects of DL3 on cell growth, cell cycle distribution is determined using the flow cytometry analysis. After incubation of LNCaP cells for 24 hr in SMEM, the majority of cells are in the G1 phase of cell cycle. […] The cell cycle distribution is examined by the propidium staining method. […] Thus, DL3 induces GI arrest of prostate cancer cells in short term culture.

[9] = system: LNCaP cells; experiment: Expression of AR-regulated genes, quantitative RT-PCR (Table 1); format: cell-based; conditions: DL3 20 μM for 24 hr
Method: To evaluate the specificity of the effects of DL3, expression of several other genes are determined by quantitative RT-PCR. […] In contrast, DL3 enhances expression of prostate-specific membrane antigen (PSMA), which is repressed by AR activation.

[10] = system: 22Rv1 cells; experiment: PSA mRNA expression, real-time RT-PCR; format: cell-based; conditions: CMEM, 24 hr, dose response (FIG. 7A)
Method: In FIG. 7 LNCaP or 22Rv1 cells (A) are treated for 24 hr with DL3 and total RNA is extracted and analyzed by real-time RT-PCR. […] PSA mRNA in LNCaP cells is approximately 20 fold higher than that in 22Rv1 cells (FIG. 7A).

[11] = system: LNCaP-Flut-R cells; experiment: Growth of Flut-refractory LNCaP cells, MTT; format: cell-based; conditions: 10 μM, 4 days, MTT (FIG. 2F)
From the text: as §1

[12] = system: AR-AF1 (LBD deleted); experiment: PSA promoter luciferase reporter in PC-3 cells co-transfected with AR-AF1; conditions: 20 μM, 24 hr
[13] = system: LNCaP cells; experiment: PSA gene transcription, real-time PCR-based nuclear run-on; conditions: 20 μM, 16 hr

CC(C)(C)c1ccc(OCCSc2nc(=O)cc(N)[nH]2)cc1 [DL3, 6-amino-2-(2-4-tert-butyl-phenoxy)-ethylsulfanyl-1H-pyrimidin-4-one]
basal PSA promoter activity ([1]; 20 μM alone): does not significantly alter | PSA promoter activity induced by DHT ([1]; 20 μM, 1 nM DHT): attenuates | DHT-induced activation of PSA promoter activity [2]: significantly inhibits | PSA production in parental LNCaP cells ([3]; 1 nM DHT, 10 μM, 48 hr (FIG. 5D)): inhibits PSA production | reduction of DHT-induced production of PSA ([3]; 5 μM, 48 hr): approximately 50% | PSA production under androgen-free conditions ([3]; 20 μM, no DHT, 48 hr): does not induce PSA production | inhibition at 20 µM ([3]; Homo sapiens, LNCaP, 48 h, read-out: inhibition of DHT-induced PSA production): ~90% | inhibitory effects on DHT-induced PSA production, dose response ([3]; various concentrations of DL3 and DHT (FIG. 5B)): dose-dependent | PSA production stimulated by Nilut ([3]; various concentrations of DL3 and Nilut (FIG. 5C)): blocked | nuclear localization of AR [4]: partially induce and enhance DHT-induced nuclear localization of AR | concentration at which inhibition of DHT-stimulated growth reaches a plateau ([5]; 1 nM DHT, 4 days): greater than 10 μM | effect on DHT-stimulated growth of LNCaP cells ([5]; 1 nM DHT, SMEM, 4 days, dose response): inhibits DHT-stimulated growth | growth of parental LNCaP cells ([5]; 10 μM, 4 days, MTT (FIG. 2F)): significantly inhibits growth | additive effect on growth of DL3 with Flut, Nilut or Bical ([5]; CMEM, 4 days, 5 μM DL3 and 10 μM of Flut, Nilut, or Bical): No significant additive effect | inhibition at 10 µM ([5]; read-out: inhibition of growth of LNCaP cells in the absence of DHT): 27% | inhibition at 10 µM ([5]; read-out: inhibition of growth of LNCaP cells in the presence of DHT): 82% | growth of LNCaP cells in the absence of DHT ([5]; no DHT, dose response): inhibits growth | growth of LNCaP-Nilut-R cells [6]: significantly inhibits growth | activation of PSA promoter activity by AR-AF2 [7]: does not inhibit | increase of the portion of cells in G1 phase of cell cycle ([8]; 24 hr, regardless of presence or absence of DHT): 15% | induction of apoptosis ([8]; 24 hr, DL3 at 20 μM): does not induce apoptosis | survivin expression and caspase 3 cleavage (western blotting) ([8]; data not shown): alter neither survivin expression nor caspase 3 cleavage | IL-8 expression DL3/CTR (%) [9]: 107% | IL-8 expression level relative to β-actin [9]: 8.59e−04 | PSA expression DL3/CTR (%) [9]: 3% | PSA expression level relative to β-actin [9]: 3.03e−02 | PSCA expression DL3/CTR (%) [9]: 55% | PSCA expression level relative to β-actin [9]: 1.90e−04 | PSMA expression DL3/CTR (%) [9]: 379% | PSMA expression level relative to β-actin [9]: 1.35e−01 | hK2 expression DL3/CTR (%) [9]: 18% | hK2 expression level relative to β-actin [9]: 4.05e−03 | expression of PSA mRNA [10]: inhibits the expression of PSA mRNA | growth of LNCaP-Flut-R cells [11]: significantly inhibits growth | activation of PSA promoter activity by AR-AF1 [12]: does not inhibit | DHT-induced PSA mRNA transcription activity of nuclear extracts ([13]; 1 nM DHT): significantly reduced | basal PSA mRNA transcription activity of nuclear extracts [13]: significantly reduced
